Test results: patent publication US9708314B2, “Heterocyclic amide compound” (NISSAN CHEMICAL INDUSTRIES, LTD., priority 2013, dated 2017)

How the values were obtained:
Assay type in all cases: in vivo
Scirpus juncoides = assay: Test Example 2: herbicidal activity, application during weed generation in submerged conditions; conditions: Eighteenth Table; application herbicide amount 320 g/ha
Summary of the method: (§1)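 Mixed sowings in flooded alluvial soil (4 cm water), greenhouse 25-30 °C; emulsifiable concentrate diluted in water applied to the water surface at the 1-2 leaf stage, rate in g/ha. Effect scored three weeks later on a 0-5 scale (5 = ≥90% herbicidal ratio, 0 = ≤5%).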

Monochoria vaginalis = assay: as above; conditions: Eighteenth Table; application herbicide amount 320 g/ha
Summary of the method: as §1

[1] = system: Echinochloa oryzacola Vasing.; assay: as above; conditions: Eighteenth Table; application herbicide amount 320 g/ha
Summary of the method: as §1

[2] = system: transplanted Oryza sativa; assay: Test Example 1: effect on crop, application before weed generation in submerged conditions; conditions: Application herbicide amount 320 g/ha; Seventeenth Table
Summary of the method: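 Pre-emergence application to water surface of submerged pots (4 cm depth, alluvial soil) on sowing day, with 2.5-leaf rice transplanted; emulsion diluted to g/ha rates. Grown in greenhouse at 25–30 °C; 0–5 herbicidal/crop-effect score after three weeks.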

Row | SMILES | B (Scirpus juncoides) herbicidal ratio grade (Scirpus juncoides) | C (Monochoria vaginalis) herbicidal ratio grade (Monochoria vaginalis) | A (Echinochloa oryzicola Vasing.) herbicidal ratio grade [1] | a: transplanted Oryza sativa (effect on crop grade) [2]
1 | CC(C)CSc1nnc2c(C(=O)Nc3nnnn3C)ccc(C(F)(F)F)n12 [2-071] | 5 (Herbicidal ratio of 90% or more (almost completely withered)) | 5 (Herbicidal ratio of 90% or more (almost completely withered)) | 3 (Herbicidal ratio of 40% or more and less than 70%) | 4 (Herbicidal ratio of 70% or more and less than 90%)
2 | CCC(C)Sc1nnc2c(C(=O)Nc3nnnn3C)ccc(C(F)(F)F)n12 (stereo not shown) [2-072] | 5 (Herbicidal ratio of 90% or more (almost completely withered)) | 5 (Herbicidal ratio of 90% or more (almost completely withered)) | 5 (Herbicidal ratio of 90% or more (almost completely withered)) | 3 (Herbicidal ratio of 40% or more and less than 70%)
3 | CC(C)c1nnc2c(C(=O)Nc3nnnn3-c3ccccc3)ccc(C(F)(F)F)n12 [2-073] | 2 (Herbicidal ratio of 20% or more and less than 40%) | 3 (Herbicidal ratio of 40% or more and less than 70%) | 2 (Herbicidal ratio of 20% or more and less than 40%) | 2 (Herbicidal ratio of 20% or more and less than 40%)
4 | COCCNc1nnc2c(C(=O)Nc3nnnn3C)ccc(C(F)(F)F)n12 [2-074] | 4 (Herbicidal ratio of 70% or more and less than 90%) | 3 (Herbicidal ratio of 40% or more and less than 70%) | 4 (Herbicidal ratio of 70% or more and less than 90%) | 3 (Herbicidal ratio of 40% or more and less than 70%)
5 | Cn1nnnc1NC(=O)c1ccc(C(F)(F)F)n2c(N3CCOCC3)nnc12 [2-075] | 5 (Herbicidal ratio of 90% or more (almost completely withered)) | 5 (Herbicidal ratio of 90% or more (almost completely withered)) | 5 (Herbicidal ratio of 90% or more (almost completely withered)) | 5 (Herbicidal ratio of 90% or more (almost completely withered))
6 | Cn1nnnc1NC(=O)c1ccc(C(F)(F)F)n2c(SCc3ccccc3)nnc12 [2-076] | 3 (Herbicidal ratio of 40% or more and less than 70%) | 2 (Herbicidal ratio of 20% or more and less than 40%) | 2 (Herbicidal ratio of 20% or more and less than 40%) | 2 (Herbicidal ratio of 20% or more and less than 40%)
7 | COc1ccc(CSc2nnc3c(C(=O)Nc4nnnn4C)ccc(C(F)(F)F)n23)cc1 [2-077] | 2 (Herbicidal ratio of 20% or more and less than 40%) | 2 (Herbicidal ratio of 20% or more and less than 40%) | 2 (Herbicidal ratio of 20% or more and less than 40%) | 1 (Herbicidal ratio of 5% or more and less than 20%)
8 | Cn1nnnc1NC(=O)c1ccc(C(F)(F)F)n2c(N3CCSCC3)nnc12 [2-078] | 4 (Herbicidal ratio of 70% or more and less than 90%) | 3 (Herbicidal ratio of 40% or more and less than 70%) | 4 (Herbicidal ratio of 70% or more and less than 90%) | 4 (Herbicidal ratio of 70% or more and less than 90%)
9 | COCCN(C)c1nnc2c(C(=O)Nc3nnnn3C)ccc(C(F)(F)F)n12 [2-079] | 5 (Herbicidal ratio of 90% or more (almost completely withered)) | 5 (Herbicidal ratio of 90% or more (almost completely withered)) | 5 (Herbicidal ratio of 90% or more (almost completely withered)) | 4 (Herbicidal ratio of 70% or more and less than 90%)
10 | CSCCNc1nnc2c(C(=O)Nc3nnnn3C)ccc(C(F)(F)F)n12 [2-080] | 1 (Herbicidal ratio of 5% or more and less than 20%) | 0 (Herbicidal ratio of 5% or less (almost no effect)) | 2 (Herbicidal ratio of 20% or more and less than 40%) | 2 (Herbicidal ratio of 20% or more and less than 40%)
11 | Cn1nnnc1NC(=O)c1ccc(C(F)(F)F)n2c(NCC(F)(F)F)nnc12 [2-081] | 2 (Herbicidal ratio of 20% or more and less than 40%) | 2 (Herbicidal ratio of 20% or more and less than 40%) | 2 (Herbicidal ratio of 20% or more and less than 40%) | 3 (Herbicidal ratio of 40% or more and less than 70%)
12 | CC(C)N(C)c1nnc2c(C(=O)Nc3nnnn3C)ccc(C(F)(F)F)n12 [2-082] | 4 (Herbicidal ratio of 70% or more and less than 90%) | 3 (Herbicidal ratio of 40% or more and less than 70%) | 5 (Herbicidal ratio of 90% or more (almost completely withered)) | 5 (Herbicidal ratio of 90% or more (almost completely withered))
13 | CN(c1nnc2c(C(=O)Nc3nnnn3C)ccc(C(F)(F)F)n12)C1CCCCC1 [2-083] | 3 (Herbicidal ratio of 40% or more and less than 70%) | 3 (Herbicidal ratio of 40% or more and less than 70%) | 3 (Herbicidal ratio of 40% or more and less than 70%) | 2 (Herbicidal ratio of 20% or more and less than 40%)
14 | Cn1nnnc1NC(=O)c1ccc(C(F)(F)F)n2c(SCC3CC3)nnc12 [2-084] | 4 (Herbicidal ratio of 70% or more and less than 90%) | 3 (Herbicidal ratio of 40% or more and less than 70%) | 4 (Herbicidal ratio of 70% or more and less than 90%) | 4 (Herbicidal ratio of 70% or more and less than 90%)
15 | Cn1nnnc1NC(=O)c1ccc(C(F)(F)F)n2c(SCC3CCCO3)nnc12 (stereo not shown) [2-085] | 4 (Herbicidal ratio of 70% or more and less than 90%) | 3 (Herbicidal ratio of 40% or more and less than 70%) | 4 (Herbicidal ratio of 70% or more and less than 90%) | 1 (Herbicidal ratio of 5% or more and less than 20%)
16 | Cn1nnnc1NC(=O)c1ccc(C(F)(F)F)n2c(SCC#N)nnc12 [2-086] | 2 (Herbicidal ratio of 20% or more and less than 40%) | 1 (Herbicidal ratio of 5% or more and less than 20%) | 0 (Herbicidal ratio of 5% or less (almost no effect)) | 0 (Herbicidal ratio of 5% or less (almost no effect))
